Data reported in US20190290656A1, “PT(IV) PRODRUGS” (YISSUM RESEARCH DEVELOPMENT COMPANY OF THE HEBREW …, priority 2015, published 2019).
Entries after “also recorded” stand apart in the source; their conditions may differ. Read-outs that look alike come from different tables or passages of the source.

Legend:
[1] = system: Histone deacetylase (HDAC); experiment: Histone deacetylase assay (Fluor-de-Lys) in MCF-7 cells; format: cell-based, human
Experimental: Histone deacetylase activity was determined using Fluor-de-Lys® HDAC fluorometric activity assay kit (Enzo Life Sciences International, Inc., Plymount Meeting, Pa., U.S.A.). […] Fluorescence was measured using a Fluoroskan Ascent FL (Labsystem, Finland) plate reader, with excitation at 360 nm and emission at 460 nm. For comparison purpose, the HDAC activity was also measured in nuclear extracts of MCF-7-treated cells by means of the same fluorometric activity assay kit. In this latter case, MCF-7 nuclear extracts were obtained as follow: cell pellets were re-suspended in lysis buffer [Tris.HCl (10 mM, pH 8.0), KCl (60 mM), EDTA (1.2 mM), DTT (1 mM), PMSF (0.05 mM), NP-40 (0.05%)] and kept on ice for 10 min. Subsequently, samples were centrifuged at 1000 g and re-suspended in the nuclear extraction buffer [Tris.HCl (20 mM, (pH 8.0), NaCl (420 mM), MgCl2 (0.7 mM), EDTA (0.25 mM), glycerol (25%)] for 30 min at 4° C., and then centrifuged at 15000 g for 15 min at 4° C.
The complexes described here were specifically designed to release either VPA of PhB inside the cells in the hope that they will inhibit HDAC activity paving the way for more efficient DNA platination. Thus, in addition to measuring the levels of DNA platination, we also measured the ability of these pro-drugs to inhibit HDAC activity in cells. […] For comparison purposes, the HDAC inhibitory effect determined by tested complexes was also assayed in isolated nuclei of MCF-7 treated cells (FIG. 3B).
The HDAC activity was determined by the Fluor de Lys® Fluorescent Cellular Activity Assay (Enzo Life Sciences).
Also, MCF-7 cells were incubated for 24 h with increasing concentrations of compounds I-VIII and their HDAC activity was determined. The IC50 values for the inhibition of HDAC activity in the cells are depicted in FIG. 3C.

MCF-7 cells = experiment: MTT cytotoxicity assay, MCF-7; format: cell-based, human; settings: MCF-7, 72 h exposure, MTT; read-out: IC50 (median growth inhibitory concentration)
Experimental: (§1) Cisplatin (CDDP) and oxaliplatin (OXP) were dissolved just before the experiment in a 0.9% NaCl solution.
(§2) Human prostate adenocarcinoma (PC3) cells were obtained from European Collection of Cell Cultures (ECACC, Salisbury, UK). Human ovarian cancer cell lines A2780 and its cisplatin resistant variant, A2780cisR, were kindly provided by Prof.
(§3) Triplicate cultures were established for each treatment.

HCT-15 cells = experiment: MTT cytotoxicity assay, HCT-15; format: cell-based, human
Experimental: (§4) Cisplatin (CDDP) and oxaliplatin (OXP) were dissolved just before the experiment in a 0.9% NaCl solution. […]
(§5) Cancer Res. 1988, 48, 589-601]. […] Triplicate cultures were established for each treatment.
(§6) MTT assay. […] Triplicate cultures were established for each treatment.
(§7) The two dimers, 3a and 3b, as well as compounds 1a and 2a were screened against six human cancer cell lines representative of lung (H157), colon (HCT-15), cervical (A431), ovarian (2008) and pancreatic (PSN1) cancers, along with melanoma (A375). Cytotoxicity was evaluated by means of the MTT test after 72 h of treatment and the in vitro antitumor potential of newly synthesized derivatives was compared to that of the reference metallo-drugs CDDP and OXP.

A2780 cells = experiment: MTT cytotoxicity assay, A2780; format: cell-based, human; settings: A2780, 72 h exposure, MTT; read-out: IC50 (median growth inhibitory concentration)
Experimental: (§8) Platinum(IV) complexes were dissolved in DMSO to stock solutions of 1 mg/mL just before the experiment, and a calculated amount of drug solution was added to the cell growth medium to a final solvent concentration of 0.5%, which had no discernible effect on cell killing. Cisplatin (CDDP) and oxaliplatin (OXP) were dissolved just before the experiment in a 0.9% NaCl solution.
as §2, §5

A549 cells = experiment: MTT cytotoxicity assay, A549; format: cell-based, human; settings: A549, 72 h exposure, MTT; read-out: IC50 (median growth inhibitory concentration)
Experimental: as §1, §2, §3

BxPC3 cells = experiment: MTT cytotoxicity assay, BxPC3; format: cell-based, human; settings: BxPC3, 72 h exposure, MTT; read-out: IC50 (median growth inhibitory concentration)
PC3 cells = experiment: MTT cytotoxicity assay, PC3; format: cell-based, human; settings: PC3, 72 h exposure, read-out: IC50 (median growth inhibitory concentration)
Experimental: as §1, §2, §3

A2780cisR cells = experiment: MTT cytotoxicity assay, A2780cisR (cisplatin resistant); format: cell-based, human; settings: for IC50: A2780cisR, 72 h exposure, MTT, read-out: IC50 (median growth inhibitory concentration)
Experimental: as §8, §2, §5

nine cancer cell lines = experiment: MTT cytotoxicity, over the nine cancer cell lines; settings: for IC50: read-out: average IC50 values for the nine cancer cell lines, mean over nine cell lines, 72 h MTT
A498 cells = experiment: MTT cytotoxicity assay, A498; format: cell-based, human; settings: A498, 72 h exposure, read-out: IC50 (median growth inhibitory concentration)
Experimental: as §8, §2, §5

A375 cells = experiment: MTT cytotoxicity assay, A375; format: cell-based, human
Experimental: as §4, §5, §6, §7

2008 cells = experiment: MTT cytotoxicity assay, 2008; format: cell-based, human; settings: 2008, 72 h, MTT
Experimental: as §6, §7

BxPC3 spheroids = experiment: 3D spheroid APH assay, BxPC3; format: cell-based, human; settings: 72 h, APH test
Text: (§9) Acid phosphatase (APH) assay. A modified APH assay, which is based on quantification of cytosolic acid phosphatase activity, was used for determining cell viability in spheroids. […] Triplicate cultures were established for each treatment. […] Evaluation was based on means from at least four independent experiments.
(§10) In order to improve the predictive capacity of the in vitro assays, we tested the activity in three three-dimensional (3D) cell cultures; human colon cancer cells, HCT-15, and human pancreatic cancer cells, KRAS wild type BxPC3 cells KRAS mutated PSN-1 cells. The cancer spheroids were treated with 3a and 3b for 72 h and the cell viability was assessed by means of the APH assay (Table 6). For comparison purposes, the cytotoxicities of CDDP and OXP were evaluated under the same experimental conditions.

[2] = system: human embryonic kidney HEK293 cells; experiment: MTT cytotoxicity against non-tumor cells; format: cell-based
Experimental: as §6
The cytotoxic activity of derivatives 3a and 3b was also evaluated against non-tumor cells, namely human embryonic kidney HEK293 cells (Table 7). Both compounds 3a and 3b were more cytotoxic than CDDP.

H157 cells = experiment: MTT cytotoxicity assay, H157; format: cell-based, human; settings: H157, 72 h
Experimental: as §6, §7

PSN1 cells = experiment: MTT cytotoxicity assay, PSN1; format: cell-based, human; settings: PSN1, 72 h, MTT
Experimental: as §6, §7

A431 cells = experiment: MTT cytotoxicity assay, A431; format: cell-based, human; settings: A431, 72 h
Experimental: as §6, §7

PSN-1 spheroids = experiment: 3D spheroid APH assay, PSN-1; format: cell-based, human; settings: PSN-1 spheroids, 72 h, APH test
Text: as §9, §10

HCT-15 spheroids = experiment: 3D spheroid APH assay, HCT-15; format: cell-based, human; settings: HCT-15 spheroids, 72 h, APH test
Text: as §9, §10

[3] = HCT-15, 72 h exposure, MTT (Table 1), read-out: IC50 (median growth inhibitory concentration)
[4] = A375, 72 h exposure, MTT (Table 1), read-out: IC50 (median growth inhibitory concentration)
[5] = HCT-15, 72 h, MTT (Table 5), read-out: IC50 (μM) ± S.D.
[6] = A375, 72 h, MTT (Table 5), read-out: IC50 (μM) ± S.D.

SMILES	IC50 (MCF-7 cells)	IC50 (HCT-15 cells; [3])	IC50 (A2780 cells)	IC50 (A549 cells)	IC50 (BxPC3 cells)	IC50 (PC3 cells)	IC50 (A2780cisR cells)	IC50 (nine cancer cell lines)	IC50 (A498 cells)	IC50 (A375 cells; [4])	IC50 (2008 cells)	IC50 (HCT-15 cells; [5])	IC50 (BxPC3 spheroids)	IC50 (H157 cells)	IC50 (PSN1 cells)	IC50 (A431 cells)	IC50 (PSN-1 spheroids)	IC50 (A375 cells; [6])	IC50 (HCT-15 spheroids)	also measured
CC(/C=C/C(=O)NO)=C\[C@@H](C)C(=O)c1ccc(N(C)C)cc1 [TSA, trichostatin A]	–	–	–	–	–	–	–	–	–	–	–	–	–	–	–	–	–	–	–	inhibition of HDAC activity ([1]; MCF-7, 24 h incubation with IC50 concentrations): about 90%
O=C(CCCc1ccccc1)[O][Pt]12([O]C(=O)CCCc3ccccc3)([NH]C3CCCCC3[NH]1)[O]C(=O)C(=O)[O]2 (stereo not drawn) [VIII, [Pt(DACH)(C10H11O2)2(ox)]]	2.28 ± 0.46 µM	12.5 ± 1.13 µM	0.9 ± 0.08 µM	19.6 ± 3.22 µM	7.64 ± 1.15 µM	6.35 ± 1.19 µM	1.96 ± 0.44 µM	6.81 µM	9.32 ± 1.07 µM	0.64 ± 0.13 µM	–	–	–	–	–	–	–	–	–	–
Cc1c(C)c2c3c4c1=CC=C[N]4[Pt+2][N]3C=CC=2.N[C@H]1CCCC[C@@H]1N [[Pt(DACH)(56Phen)], reference compound]	–	–	–	–	–	–	–	–	–	–	0.74 ± 0.12 µM	0.69 ± 0.11 µM	100 ± 12.1 µM	0.16 ± 0.01 µM	0.25 ± 0.08 µM	0.28 ± 0.08 µM	55.5 ± 9.75 µM	1.12 ± 0.42 µM	60.2 ± 2.92 µM	IC50 ([2]; HEK293 non-tumor cells, 72 h, MTT): 1.12 ± 0.87 µM; SI (selectivity index) ([2]; ratio between average IC50 of non-tumor cells and IC50 of malignant cells): 0.9
O=C(O)CCCc1ccccc1 [Compound 4-PB, 4-phenylbutyric acid, reference compound]	–	–	–	–	–	–	–	–	–	–	–	–	–	–	–	–	–	–	–	IC50 for cellular inhibition of HDAC activity (in words) ([1]; MCF-7, 24 h, increasing concentrations): significantly higher; cytotoxicity IC50 values (in words) (nine cancer cell lines; uncoordinated ligands, listed as PhB): millimolar range; also recorded: mM range
CCCC(CCC)C(=O)[O][Pt]12([O]C(=O)C(CCC)CCC)([NH]C3CCCCC3[NH]1)[O]C(=O)C(=O)[O]2 (stereo not drawn) [III, [Pt(DACH)(C8H15O2)2(ox)]]	5.7 ± 0.9 µM	16.4 ± 1.63 µM	1.3 ± 0.2 µM	20.5 ± 2.14 µM	14.4 ± 2.16 µM	10.1 ± 1.17 µM	8.8 ± 2.1 µM	–	5.21 ± 1.1 µM	4.17 ± 0.87 µM	–	–	–	–	–	–	–	–	–	resistance factor (A2780cisR cells; ratio IC50 resistant (A2780cisR) / sensitive (A2780) cells): 6.8
O=C1[O][Pt]2([NH][C@@H]3CCCC[C@H]3[NH]2)[O]C1=O [OXP, oxaliplatin, reference compound]	3.36 ± 0.2 µM	1.15 ± 0.43 µM	0.52 ± 0.27 µM	1.46 ± 0.31 µM	4.15 ± 0.93 µM	5.24 ± 0.86 µM	4.2 ± 1.6 µM	4.9 µM	7.94 ± 1.04 µM	6.3 ± 1.11 µM	1.53 ± 0.88 µM	1.15 ± 0.43 µM	75.2 ± 6.91 µM	5.99 ± 1.85 µM	8.25 ± 3.42 µM	3.06 ± 0.88 µM	59.7 ± 8.52 µM	6.3 ± 2.01 µM	36.5 ± 3.12 µM	effect on HDAC activity (in words) ([1]; MCF-7, 24 h, IC50 concentrations): not effective in modifying HDAC activity
